According to a compilation of properties of binary mixtures (doi:10.1021/je300093r):

Experiment: xn = mol fraction of the nth substance listed
Conditions: 101 kPa

CCCC[n+]1ccccc1.F[B-](F)(F)F + CCCC[n+]1ccccc1.O=S(=O)([N-]S(=O)(=O)C(F)(F)F)C(F)(F)F
x2 = 0
Conditions	viscosity [mPa·s]
313.15 K	74.8
323.15 K	48.1
333.15 K	33
343.15 K	23.8

CCCC[n+]1ccccc1.O=S(=O)([N-]S(=O)(=O)C(F)(F)F)C(F)(F)F + CCCC[n+]1ccccc1.F[B-](F)(F)F
viscosity [mPa·s]
Conditions	303.15 K	313.15 K	323.15 K	333.15 K	343.15 K	353.15 K
x1 = 0.0442	115.3	70.5	46.1	31.9	22.9	17.1
x1 = 0.1119	105	66.2	43.8	30.4	–	–
x1 = 0.2162	–	57.6	38.6	27.3	–	15.2
x1 = 0.3217	82.6	53.1	35.7	25.5	18.7	14.4
x1 = 0.4327	75.7	–	33.3	23.8	17.6	–
x1 = 0.5429	70.2	–	31.8	23.1	17.3	–
x1 = 0.6523	63.1	–	29.8	–	16.4	12.8
x1 = 0.7643	–	39.1	27.7	20.5	15.5	12.1
x1 = 0.8822	54.1	–	25.8	19.2	–	11.5
x1 = 0.9467	52	35	25	18.5	14.1	11.1
x1 = 1	49.4	33.8	–	17.9	13.7	–
